Measurements as given in the supplement of paper PMC10307832.

What was measured:
Experiment in all cases: relative viability (nuclei count vs DMSO), 5 days (fraction); higher = more cells survive
[1] = compound: CN(c1ncccc1CNc1nc(Nc2ccc3c(c2)CC(=O)N3)ncc1C(F)(F)F)S(C)(=O)=O + Cc1cc(Nc2cc(N3CCN(C)CC3)nc(Sc3ccc(NC(=O)C4CC4)cc3)n2)n[nH]1 [Tozasertib] (partner 0.1 µM)
In short: (§1)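 Nuclei were stained with Hoechst during a one-step fixation (final 0.05% Triton X-100, 1% formaldehyde, 1 ug/ml Hoechst) carried out 5 days after dosing, then counted on 4× images. The cells, lung cancer lines in 1536-well plates, had been dosed by pin tool the day after seeding with one drug alone or a fixed anchor-drug dose plus five library-drug doses (not always all listed) in √10 steps. Relative viability is the nuclei count in treated wells divided by that in vehicle wells, and each value is the median of duplicate plates.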

[2] = compound: CN(c1ncccc1CNc1nc(Nc2ccc3c(c2)CC(=O)N3)ncc1C(F)(F)F)S(C)(=O)=O + COc1cc2c(Oc3ccc(NC(=O)C4(C(=O)Nc5ccc(F)cc5)CC4)cc3F)ccnc2cc1OCCCN1CCOCC1 [Foretinib] (partner 0.25 µM)
In short: as §1

[3] = compound: CN(c1ncccc1CNc1nc(Nc2ccc3c(c2)CC(=O)N3)ncc1C(F)(F)F)S(C)(=O)=O + CCNC(=O)c1noc(-c2cc(C(C)C)c(O)cc2O)c1-c1ccc(CN2CCOCC2)cc1 [Luminespib] (partner 0.01 µM)
In short: as §1

[4] = compound: CN(c1ncccc1CNc1nc(Nc2ccc3c(c2)CC(=O)N3)ncc1C(F)(F)F)S(C)(=O)=O + NC(=O)Nc1cc(-c2cccc(F)c2)sc1C(=O)N[C@H]1CCCNC1 [AZD7762] (partner 0.2 µM)
In short: as §1

Row | Cell Line | relative viability ([1]; first compound 0.01 µM) | relative viability ([1]; first compound 0.03162 µM) | relative viability ([1]; first compound 0.1 µM) | relative viability ([1]; first compound 0.3162 µM) | relative viability ([1]; first compound 1 µM) | relative viability ([2]; first compound 0.01 µM) | relative viability ([2]; first compound 0.03162 µM) | relative viability ([2]; first compound 0.1 µM) | relative viability ([2]; first compound 0.3162 µM) | relative viability ([2]; first compound 1 µM) | relative viability ([3]; first compound 0.01 µM) | relative viability ([3]; first compound 0.03162 µM) | relative viability ([3]; first compound 0.1 µM) | relative viability ([3]; first compound 0.3162 µM) | relative viability ([3]; first compound 1 µM) | relative viability ([4]; first compound 0.01 µM) | relative viability ([4]; first compound 0.03162 µM) | relative viability ([4]; first compound 0.1 µM) | relative viability ([4]; first compound 0.3162 µM) | relative viability ([4]; first compound 1 µM)
1 | NCI-H2170 | 0.741 | 0.691 | 0.679 | 0.649 | 0.716 | 1.02 | 1.02 | 1.01 | 1.02 | 0.949 | 0.722 | 0.799 | 0.707 | 0.749 | 0.424 | 0.942 | 1.02 | 0.794 | 0.96 | 0.914
2 | NCI-H2342 | 0.524 | 0.493 | 0.561 | 0.409 | 0.489 | 1.15 | 0.976 | 0.927 | 0.953 | 0.999 | 0.702 | 0.736 | 0.643 | 0.632 | 0.723 | 0.506 | 0.516 | 0.472 | 0.402 | 0.404
3 | NCI-H2347 | 0.544 | 0.626 | 0.672 | 0.44 | 0.478 | 0.612 | 0.992 | 1.1 | 0.555 | 0.616 | 0.643 | 0.557 | 0.243 | 0.592 | 0.389 | 0.818 | 0.654 | 0.782 | 0.733 | 0.685
4 | NCI-H2405 | 0.696 | 0.719 | 0.715 | 0.534 | 0.499 | 1.02 | 1.07 | 0.976 | 0.886 | 0.82 | 0.791 | 0.723 | 0.622 | 0.464 | 0.52 | 0.702 | 0.69 | 0.749 | 0.573 | 0.626
5 | NCI-H3122 | 0.61 | 0.383 | 0.403 | 0.402 | 0.341 | 1.01 | 0.876 | 0.916 | 0.902 | 0.929 | 0.0983 | 0.101 | 0.0795 | 0.0863 | 0.0795 | 1.04 | 1.09 | 0.981 | 0.978 | 1.03
6 | PC-3 [JPC-3] | 0.903 | 0.907 | 0.913 | 0.847 | 0.832 | 1.07 | 1.03 | 0.999 | 1.04 | 0.929 | 0.719 | 0.788 | 0.792 | 0.665 | 0.636 | 0.851 | – | 0.848 | 0.948 | 1.03
7 | PC-14 | 0.531 | 0.705 | 0.54 | 0.59 | 0.52 | 1.01 | 1.04 | 1.01 | 1.07 | 1 | 0.233 | 0.15 | 0.192 | 0.176 | 0.236 | 0.393 | 0.443 | 0.426 | 0.385 | 0.311
8 | RERF-LC-KJ | 0.468 | 0.466 | 0.467 | 0.514 | 0.348 | 0.867 | 1.03 | 0.861 | 0.843 | 0.939 | 1.16 | 1.34 | 1.17 | 1.28 | 1.19 | 0.89 | 1.08 | 1.03 | 1.04 | 1.07
9 | SW 900 | 0.547 | 0.629 | 0.543 | 0.495 | 0.446 | 0.796 | 0.964 | 0.872 | 0.894 | 0.566 | 0.216 | 0.2 | 0.19 | 0.154 | 0.168 | 0.579 | 0.688 | 0.784 | 0.594 | 0.733
